PMC6832932, “Design and Selection of Novel C1s Inhibitors by In Silico and In Vitro Approaches” (Molecules, 2019)
Read-outs that look alike come from different tables or passages of the source.

Tests used:
C1s [1] = target: T1, C1s (Homo sapiens, UniProt P09871); details: ref Subasinghe et al, 2004 [5]; read-out: Ki (C1s, thiopheneamidine inhibitors); cited from earlier work
T1 construct: Recombinant C1s and C1r fragments (CCP1-CCP2-SP, the γB catalytic region); made in house
T1 sequence (P09871 438-688 limits assumed): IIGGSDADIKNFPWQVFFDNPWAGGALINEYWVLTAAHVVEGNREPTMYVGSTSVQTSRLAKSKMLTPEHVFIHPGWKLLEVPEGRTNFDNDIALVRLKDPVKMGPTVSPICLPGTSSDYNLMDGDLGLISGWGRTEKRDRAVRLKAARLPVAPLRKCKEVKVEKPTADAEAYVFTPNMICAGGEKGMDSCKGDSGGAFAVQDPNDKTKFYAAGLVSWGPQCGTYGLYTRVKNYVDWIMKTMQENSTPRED

C1s [2] = target: T1, C1s; experiment: C1s inhibition IC50 assay (thioester substrate Z-Lys-SBzl with DTNB, photometric); format: biochemical; details: read-out: IC50 C1s
Excerpt: (§1) Recombinant C1s and C1r fragments (CCP1-CCP2-SP, the γB catalytic region) containing the serine protease domain were expressed in E. Coli BL21(DE3)pLysS host strain (transformed with pET-17b vector) in form of inclusion bodies; proteins were isolated, renatured and purified as published earlier. Recombinant C1s, isolated in intact proenzyme form, was activated by limited proteolysis using the recombinant, autoactivated C1r fragment. Activated C1s and C1r were separated using Q Sepharose HP (Amersham Biosciences, Little Chalfont, UK) anion exchange chromatography.
40 µL enzyme + 10 µL inhibitor compounds were incubated (10 min, RT), and 50 µL substrate solution (1 mM final concentration) was added; incubated for 45 min and finally absorbance was read (405 nm) with a Perkin Elmer Wallac 1420 Victor2 microplate reader.

Human isolated Factor Xa = target: T2, Human isolated Factor Xa (Homo sapiens, UniProt P00742); experiment: Factor Xa activity assay (fluorescent substrate Boc-Leu-Gly-Arg-AMC); format: biochemical; details: for remaining activity at 10 µM: 10 µM compound
T2 construct: purchased ThermoFisher Scientific (Waltham, MA, USA)
Protocol: Human isolated Factor Xa protein was purchased from ThermoFisher Scientific (Waltham, MA, USA). An end-point assay was carried out using the fluorescent amide substrate Boc-Leu-Gly-Arg-AMC used for C1s 10 µM screen; assay conditions: 20 mM HEPES (pH 7,8) 100 mM NaCl, 10 mM CaCl2 30 °C, 0.05% TWEEN-20, 1% DMSO; low enzyme concentration (about 1 nM); in a 96 well microplate format (in 100 µL), using non-binding black plates (Greiner).

C1s [3] = target: T1, C1s; experiment: C1s focused library screening (fluorescent substrate Boc-Leu-Gly-Arg-AMC, 10 µM); format: biochemical
Excerpt: as §1
Two end-point assays have been developed for C1s inhibition assays: For screening assays a specific, fluorescent amide substrate Boc-Leu-Gly-Arg-AMC (Sigma, St. Louis, MO, USA), representing the cleavage site sequence of C2 was used with relatively high enzyme concentration (0.2 µM). Assay conditions: 20 mM HEPES (pH 7.4), 200 mM NaCl, 0.05% Tween20, 1% DMSO; 384 microplate format; 10 µL enzyme + 10 µL inhibitor compounds (final concentration: 10 µM); incubation time and temperature: 10 min, RT; then 20 µL substrate solution was added (1 mM final concentration); incubated (45 min, 30 °C) and the fluorescence have been read (355/460 nm; Wallac 1420 Victor2 microplate reader, Perkin Elmer, Waltham, MA, USA).

C1s [4] = target: T1, C1s; details: cited from earlier work
[5] = 1 mM Z-Lys-SBzl, enzyme below 1 nM
[6] = 1 mM ZLysSBzl, Figure S1 curves
[7] = 1 mM Z-Lys-SBzl, text and Figure S1

T2 sequence (P00742 235-488 limits assumed): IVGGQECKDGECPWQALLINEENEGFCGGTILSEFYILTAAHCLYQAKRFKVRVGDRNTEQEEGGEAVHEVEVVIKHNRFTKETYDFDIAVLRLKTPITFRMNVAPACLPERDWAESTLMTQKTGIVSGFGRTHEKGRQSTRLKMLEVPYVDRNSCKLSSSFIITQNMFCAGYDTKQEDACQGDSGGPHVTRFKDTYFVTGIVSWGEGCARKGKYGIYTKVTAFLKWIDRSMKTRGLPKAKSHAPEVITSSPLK
T2 sequence (P00742 41-179 partner limits assumed): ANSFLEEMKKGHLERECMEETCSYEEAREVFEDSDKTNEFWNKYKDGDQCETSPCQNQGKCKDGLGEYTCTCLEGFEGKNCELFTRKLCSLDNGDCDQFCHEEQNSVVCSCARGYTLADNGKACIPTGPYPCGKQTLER

IC50 (C1s [2]; [5]) [nM] | remaining activity at 10 µM (Human isolated Factor Xa) [%] | SMILES | Ki (C1s [1]) [nM] | other results
 |  | COc1ccc(-c2csc(-c3cc(C(=N)N)sc3SC)n2)c(OC)c1 [CHEMBL286267] | 640 | 
241 | 53.6 | O=c1nc(-c2cccs2)oc2cc(Cl)ccc12 [Entry 21] |  | IC50 (C1s [2]; [6]): 240 nM
 |  | O=C(c1ccc(C(=O)n2nnc3ccccc32)cc1)n1nnc2ccccc21 [1-[4-(1,2,3-benzotriazole-1-carbonyl)benzoyl]-1,2,3-benzotriazole] |  | C1s inhibitory activity (in words) (C1s [3]): inactive
 |  | CSc1sc(C(=N)N)cc1-c1nc(Cc2ccccc2)cs1 [CHEMBL29269] | 1060 | 
 |  | CSc1sc(C(=N)N)cc1-c1nc(COc2ccccc2)cs1 [CHEMBL287292] | 520 | 
2160 | 92.3 | O=C(c1ccc(F)c(F)c1)n1nnc2ccccc21 [Entry 6] |  | 
 |  | CSc1sc(C(=N)N)cc1-c1nc(-c2cccs2)cs1 [CHEMBL31549] | 700 | 
 |  | CSc1sc(C(=N)N)cc1-c1nc(-c2cccc(C)c2)cs1 [CHEMBL286498] | 960 | 
 |  | CSc1sc(C(=N)N)cc1-c1nc(-c2ccccc2)cs1 [CHEMBL281899] | 560 | 
 |  | CSc1sc(C(=N)N)cc1-c1nc(-c2cnn(C)c2)cs1 [CHEMBL102417] | 460 | 
 |  | COc1sc(C(=N)N)cc1-c1nc(-c2ccccc2)cs1 [CHEMBL322207] | 14400 | 
12 | 2.39 | COc1ccccc1C(=O)n1nc(-c2ccco2)nc1SC [Entry 9] |  | IC50 (C1s [2]; [7]): 11.6 nM; IC50 (Human isolated Factor Xa; 500 µM Boc-Leu-Gly-Arg-AMC): 1250 nM
549 | 100 | Cc1sc2nc(-c3ccco3)oc(=O)c2c1C [Entry 17] |  | C1s inhibitory activity as reported in ChEMBL and PubChem (in words) (C1s [4]; ref [9]): inactive
 |  | CSc1sc(C(=N)N)cc1-c1nc(-c2ccccc2C)cs1 [CHEMBL28949] | 850 | 
 |  | N=C(N)c1cc(-c2nc(-c3ccccc3)cs2)c(C(F)(F)F)s1 [CHEMBL103840] | 12500 | 
 |  | CSc1sc(C(=N)N)cc1-c1nc(-c2cnccc2Cl)cs1 [CHEMBL28723] | 870 | 
 |  | N=C(N)c1cc(-c2nc(-c3ccccc3)cs2)cs1 [CHEMBL321519] | > 20000 | 
 |  | CSc1sc(C(=N)N)cc1-c1nc(-c2cnn(-c3ccccc3)c2)cs1 [CHEMBL322834] | 150 | 
 |  | CSc1sc(C(=N)N)cc1-c1nc(-c2ccc3ccccc3c2)cs1 [CHEMBL29290] | 490 | 
91 | 43.1 | CC(=O)Nc1ccc(C(=O)n2nnc3ccccc32)cc1 [Entry 2] |  | IC50 (C1s [2]; [7]): 90.8 nM
845 | 46.1 | Cc1cc2c(=O)oc(-c3ccccc3Br)nc2s1 [Entry 18] |  | IC50 (C1s [2]; [6]): 846 nM
 |  | CSc1sc(C(=N)N)cc1-c1ncc(-c2ccccc2)s1 [CHEMBL322672] | 3250 | 

IC50 (C1s [2]; [5]) [nM] | remaining activity at 10 µM (Human isolated Factor Xa) [%] | SMILES | Ki (C1s [1]) [nM] | other results
 |  | COc1ccccc1-c1csc(-c2cc(C(=N)N)sc2SC)n1 [CHEMBL283080] | 850 | 
 |  | COc1cccc(-c2csc(-c3cc(C(=N)N)sc3SC)n2)c1 [CHEMBL29205] | 470 | 
 |  | CSc1sc(C(=N)N)cc1-c1nc(-c2ccc(Cl)cc2Cl)cs1 [CHEMBL285142] | 3000 | 
3870 | 92.1 | O=C(c1ccc(-c2ccccc2)cc1)n1nnc2ccccc21 [Entry 7] |  | 
 |  | CSc1sc(C(=N)N)cc1-c1nc(-c2ccc(Cl)cc2)cs1 [CHEMBL286243] | 436 | 
~20000 |  | Cc1sc2nc(-c3ccccc3)oc(=O)c2c1C [Entry 19] |  | 
 |  | CSc1sc(C(=N)N)cc1-c1nc(C2CCCCC2)cs1 [CHEMBL283859] | 4700 | 
 |  | CCCc1nn(C)cc1-c1csc(-c2cc(C(=N)N)sc2SC)n1 [CHEMBL106388] | 190 | 
 |  | CSc1sc(C(=N)N)cc1-c1nc(-c2cnn(-c3ccccc3)c2OCCC(C)C)cs1 [CHEMBL101698] | 1500 | 
29000 | 77.6 | CC(=O)Oc1ccc2nc(-c3ccco3)oc(=O)c2c1 [Entry 16] |  | 
 |  | CCOc1c(-c2csc(-c3cc(C(=N)N)sc3SC)n2)cnn1-c1ccccc1 [CHEMBL321341] | 90 | 
6440 | 61.4 | COc1cc2nc(-c3ccco3)oc(=O)c2cc1OC [Entry 14] |  | 
 |  | CSc1sc(C(=N)N)cc1-c1nc(-c2ccc([N+](=O)[O-])cc2)cs1 [CHEMBL29006] | 1000 | 
83 | 30.3 | CCOc1ccc(C(=O)n2nnc3ccccc32)cc1 [Entry 1] |  | IC50 (C1s [2]; [7]): 83.3 nM
 |  | CCc1sc(C(=N)N)cc1-c1nc(-c2ccccc2)cs1 [CHEMBL441273] | 3000 | 
 |  | CSc1sc(C(=N)N)cc1-c1nc(-c2ccc(-c3ccccc3)cc2)cs1 [CHEMBL418023] | 15400 | 
 |  | CCCOc1c(-c2csc(-c3cc(C(=N)N)sc3SC)n2)cnn1-c1ccccn1 [CHEMBL317917] | 70 | 
 |  | O=C(c1ccc2c(c1)OCO2)C1C2C(=O)N(c3ccc4c(c3)OCCO4)C(=O)C2C2c3ccccc3C=CN12 (stereo not shown) [4,257,399] |  | IC50 (C1s [4]; ref PubChem, read-out: IC50 C1s): 880 nM
41000 |  | Cc1cccc2c(=O)nc(-c3ccco3)oc12 [Entry 23] |  | 
 |  | CCSc1sc(C(=N)N)cc1-c1nc(-c2ccccc2)cs1 [CHEMBL105102] | > 20000 | 
 |  | CS(=O)(=O)c1sc(C(=N)N)cc1-c1nc(-c2ccccc2)cs1 [CHEMBL105652] | > 28000 | 
1850 | 48.3 | COc1ccc(C(=O)n2nnc3ccccc32)cc1OC [Entry 5] |  | 

IC50 (C1s [2]; [5]) [nM] | remaining activity at 10 µM (Human isolated Factor Xa) [%] | SMILES | Ki (C1s [1]) [nM] | other results
 |  | CSc1sc(C(=N)N)cc1-c1nc(-c2cccnc2Cl)cs1 [CHEMBL285818] | 1020 | 
5900 | 76.5 | CCN(CC)c1ccc(C(=O)n2nnc3ccccc32)cc1 [Entry 8] |  | 
94 | 26 | CSc1nc(-c2ccco2)nn1C(=O)c1ccccc1 [Entry 11] |  | IC50 (C1s [2]; [7]): 93.6 nM
 |  | COc1ccc(-c2csc(-c3cc(C(=N)N)sc3SC)n2)cc1 [CHEMBL28618] | 900 | 
 |  | CSc1sc(C(=N)N)cc1-c1nc(-c2ccc(C)cc2)cs1 [CHEMBL29304] | 420 | 
474 | 98.6 | O=c1oc(-c2ccco2)nc2cc(Cl)ccc12 [Entry 13] |  | 
 |  | CSc1sc(C(=N)N)cc1-c1nc(-c2csc3ccccc23)cs1 [CHEMBL28875] | 450 | 
6700 | 82 | O=c1oc(-c2ccco2)nc2ccc(Cl)cc12 [Entry 15] |  | IC50 (C1s [2]; [6]): 6680 nM
 |  | Cc1sc(C(=N)N)cc1-c1nc(-c2ccccc2)cs1 [CHEMBL106071] | 6000 | 
3600 | 0.14 | O=c1nc(-c2ccco2)oc2ccc(Cl)cc12 [Entry 22] |  | 
240 | 4.93 | COc1cc(SC)ccc1C(=O)n1nnc2ccccc21 [Entry 3] |  | 
1300 | 86.2 | CC(C)(C)c1ccc(C(=O)n2nnc3ccccc32)cc1 [Entry 4] |  | 
2400 | 85.4 | CCOC(=O)CSc1nc(-c2cccnc2)nn1C(=O)c1ccccc1 [Entry 12] |  | 
 |  | CCCc1c(-c2csc(-c3cc(C(=N)N)sc3SC)n2)cnn1C [CHEMBL318576] | 330 | 
 |  | CSc1nc(-c2ccco2)nn1C(=O)c1ccco1 [7 965 558] |  | IC50 (C1s [4]; seed compounds for 2D similarity search, ref PubChem [9],[10], read-out: IC50 (seed compounds)): 4480 nM
 |  | CSc1sc(C(=N)N)cc1-c1nc(-c2ccc(Cl)c([N+](=O)[O-])c2)cs1 [CHEMBL413764] | 860 | 
~50000 |  | Cc1ccc(-c2nc3sc(C)c(C)c3c(=O)o2)cc1 [Entry 20] |  | 
 |  | CSc1sc(C(=N)N)cc1-c1nc(-c2cnn(-c3ccccc3)c2OCC2CCC2)cs1 [CHEMBL102835] | 530 | 
44 | 78.1 | CSc1nc(-c2ccco2)nn1C(=O)c1ccc(F)cc1 [Entry 10] |  | IC50 (C1s [2]; [7]): 43.6 nM
 |  | N=C(N)c1cc(-c2nc(-c3ccccc3)cs2)c(SCc2ccccc2)s1 [CHEMBL104368] | > 20000 | 
